Laboratory results: patent US9169241B2, “Quinolinyloxyphenylsulfonamides” (Max-Planck-Gesellschaft Zur Forderung der Wissenschaften …, priority 2009, dated 2015)

Key:
Type in all cases: cell-based
[1] = tested on: U138; experiment: Apoptosis assay (Cellomics, nucleus condensation); conditions: Table III, read-out: Apoptosis induction in U138
Summary of the method: (§1)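 Cells seeded at 5000 per well were stained live with Hoechst 33342, and nuclear condensation was quantified per nucleus by automated fluorescence imaging alongside cell counts. Compound was tested at 12.5, 6.25, 3.125, 1.56, 0.78 and 0.39 μM against a DMSO control, with reads at 24 h and 48 h.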

[2] = tested on: SF763; experiment: Apoptosis assay (Cellomics, nucleus condensation); conditions: Table III, read-out: Apoptosis induction in SF763
Summary of the method: as §1

[3] = tested on: SF126; experiment: Apoptosis assay (Cellomics, nucleus condensation); conditions: Homo sapiens, SF-126, Table III, read-out: Apoptosis induction in SF126
Summary of the method: as §1

[4] = tested on: Hs578T; experiment: Apoptosis assay (Cellomics, nucleus condensation); conditions: Homo sapiens, Hs-578T, Table III, read-out: Apoptosis induction in Hs578T
Summary of the method: as §1

[5] = tested on: C8161; experiment: Apoptosis assay (Cellomics, nucleus condensation); conditions: Homo sapiens, Table III, read-out: Apoptosis induction in C8161
Summary of the method: as §1

[6] = tested on: U118; experiment: Apoptosis assay (Cellomics, nucleus condensation); conditions: Table III, read-out: Apoptosis induction in U118
Summary of the method: as §1

[7] = biological target: T1, wild type AXL (wtAXL) receptor tyrosine kinase (Homo sapiens, UniProt P30530); experiment: NIH-3T3-AXL cellular kinase assay (pY-AXL-ELISA); conditions: NIH-3T3-AXL (clone 22) cells, serum depleted, compounds 1 h; Table Ia
T1 construct: WtAXL cDNA was cloned into vector pLXSN(ESK) and transfected into Phoenix E packaging cells; expressed in transfected cells; host or cells: NIH3T3 N7 (mouse fibroblasts), retrovirally infected, clone 22
T1 sequence (P30530 26-894): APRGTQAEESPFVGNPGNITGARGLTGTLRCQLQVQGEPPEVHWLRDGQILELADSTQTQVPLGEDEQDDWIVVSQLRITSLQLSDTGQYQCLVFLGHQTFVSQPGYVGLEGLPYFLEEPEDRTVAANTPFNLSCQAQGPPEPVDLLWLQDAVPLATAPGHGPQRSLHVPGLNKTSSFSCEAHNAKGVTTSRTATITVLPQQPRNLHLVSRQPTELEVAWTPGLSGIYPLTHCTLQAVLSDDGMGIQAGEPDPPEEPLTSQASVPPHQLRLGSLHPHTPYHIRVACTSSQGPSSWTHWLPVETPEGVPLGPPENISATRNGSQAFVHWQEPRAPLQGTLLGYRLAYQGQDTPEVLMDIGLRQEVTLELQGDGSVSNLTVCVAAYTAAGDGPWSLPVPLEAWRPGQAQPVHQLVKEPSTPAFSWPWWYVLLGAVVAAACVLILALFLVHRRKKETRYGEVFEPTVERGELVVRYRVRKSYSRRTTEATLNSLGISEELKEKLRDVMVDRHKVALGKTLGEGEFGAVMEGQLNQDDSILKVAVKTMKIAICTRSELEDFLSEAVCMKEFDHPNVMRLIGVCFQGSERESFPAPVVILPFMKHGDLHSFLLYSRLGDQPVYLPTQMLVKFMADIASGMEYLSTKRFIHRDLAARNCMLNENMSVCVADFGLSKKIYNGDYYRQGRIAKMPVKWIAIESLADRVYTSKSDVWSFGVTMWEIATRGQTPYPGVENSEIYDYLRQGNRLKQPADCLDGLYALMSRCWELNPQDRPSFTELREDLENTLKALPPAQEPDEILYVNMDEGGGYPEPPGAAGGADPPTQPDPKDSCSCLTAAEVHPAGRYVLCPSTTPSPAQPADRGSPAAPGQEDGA
Summary of the method: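 NIH3T3 cells stably expressing human wild-type AXL (retroviral, puromycin-selected clones) were treated with serial compound dilutions for 1 h and lysed. AXL tyrosine phosphorylation was measured by ELISA on the lysates: biotinylated 4G10 anti-phosphotyrosine, streptavidin-alkaline phosphatase, AttoPhos fluorescence at 430/560 nm after 90 min.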

## COc1cc2c(Oc3ccc(NS(=O)(=O)c4cc(F)ccc4F)cc3F)ccnc2cc1OCCCN1CCCCC1 [Example 1, 2,5-Difluoro-N-{3-fluoro-4-[6-methoxy-7-(3-piperidin-1-yl-propoxy)-quinolin-4-yloxy]-phenyl}-benzenesulfonamide]
[1]
  IC50: ≤ 12.5 µM
[2]
  IC50: 12.5 to 50 µM
[3]
  IC50: ≤ 12.5 µM
[4]
  IC50: ≤ 12.5 µM
[5]
  IC50: ≤ 12.5 µM
[6]
  IC50: ≤ 12.5 µM

## COc1cc2c(Oc3ccc(NS(=O)(=O)c4ccccc4[N+](=O)[O-])cc3F)ccnc2cc1OCCCN1CCCCC1 [Example 7, N-{3-Fluoro-4-[6-methoxy-7-(3-piperidin-1-yl-propoxy)-quinolin-4-yloxy]-phenyl}-2-nitro-benzenesulfonamide]
[1]
  IC50: ≤ 12.5 µM
[2]
  IC50: ≤ 12.5 µM
[4]
  IC50: ≤ 12.5 µM
[5]
  IC50: ≤ 12.5 µM
[6]
  IC50: 12.5 to 50 µM
[7]
  IC50: < 0.5 µM

## COc1cc2c(Oc3ccc(NS(=O)(=O)c4cc(F)ccc4F)cc3F)ccnc2cc1OCCCN1CCN(C)CC1 [Example 12, 2,5-Difluoro-N-(3-fluoro-4-{6-methoxy-7-[3-(4-methyl-piperazin-1-yl)-propoxy]-quinolin-4-yloxy}-phenyl)-benzenesulfonamide]
[5]
  IC50: 12.5 to 50 µM
[7]
  IC50: < 0.5 µM

## COc1cc2c(Oc3ccc(NS(=O)(=O)c4cccc(Oc5ccccc5)c4)cc3F)ccnc2cc1OCCCN1CCN(C)CC1 [Example 14, N-(3-Fluoro-4-{6-methoxy-7-[3-(4-methyl-piperazin-1-yl)-propoxy]-quinolin-4-yloxy}-phenyl)-3-phenoxy-benzenesulfonamide]
[1]
  IC50: ≤ 12.5 µM
[2]
  IC50: ≤ 12.5 µM
[3]
  IC50: ≤ 12.5 µM
[4]
  IC50: ≤ 12.5 µM
[5]
  IC50: ≤ 12.5 µM
[6]
  IC50: 12.5 to 50 µM

## COc1cc2c(Oc3ccc(NS(=O)(=O)c4ccccc4[N+](=O)[O-])cc3F)ccnc2cc1OCCCN1CCN(C)CC1 [Example 21, N-(3-Fluoro-4-{6-methoxy-7-[3-(4-methyl-piperazin-1-yl)-propoxy]-quinolin-4-yloxy}-phenyl)-2-nitro-benzenesulfonamide]
[1]
  IC50: 12.5 to 50 µM
[2]
  IC50: ≤ 12.5 µM
[3]
  IC50: ≤ 12.5 µM
[4]
  IC50: ≤ 12.5 µM
[5]
  IC50: ≤ 12.5 µM
[6]
  IC50: ≤ 12.5 µM

## COc1cc2c(Oc3ccc(NS(=O)(=O)c4ccccc4C(F)(F)F)cc3F)ccnc2cc1OCCCN1CCN(C)CC1 [Example 24, N-(3-Fluoro-4-{6-methoxy-7-[3-(4-methyl-piperazin-1-yl)-propoxy]-quinolin-4-yloxy}-phenyl)-2-trifluoromethyl-benzenesulfonamide]
[5]
  IC50: ≤ 12.5 µM

## COc1cc2c(Oc3ccc(NS(=O)(=O)c4ccccc4OC(F)(F)F)cc3F)ccnc2cc1OCCCN1CCN(C)CC1 [Example 25, N-(3-Fluoro-4-{6-methoxy-7-[3-(4-methyl-piperazin-1-yl)-propoxy]-quinolin-4-yloxy}-phenyl)-2-trifluoromethoxy-benzenesulfonamide]
[1]
  IC50: ≤ 12.5 µM
[2]
  IC50: ≤ 12.5 µM
[3]
  IC50: ≤ 12.5 µM
[4]
  IC50: ≤ 12.5 µM
[5]
  IC50: ≤ 12.5 µM
[6]
  IC50: ≤ 12.5 µM

## COc1cc2c(Oc3ccc(NS(=O)(=O)c4ccccc4Cl)cc3F)ccnc2cc1OCCCN1CCN(C)CC1 [Example 29, 2-Chloro-N-(3-fluoro-4-{6-methoxy-7-[3-(4-methyl-piperazin-1-yl)-propoxy]-quinolin-4-yloxy}-phenyl)-benzenesulfonamide]
[1]
  IC50: 12.5 to 50 µM
[2]
  IC50: ≤ 12.5 µM
[3]
  IC50: ≤ 12.5 µM
[4]
  IC50: ≤ 12.5 µM
[5]
  IC50: ≤ 12.5 µM

## COc1cc2c(Oc3c(Cl)cc(NS(=O)(=O)c4ccccc4C(F)(F)F)cc3Cl)ccnc2cc1OCCCN1CCC(C)CC1 [Example 210, N-(3,5-Dichloro-4-{6-methoxy-7-[3-(4-methyl-piperidin-1-yl)-propoxy]-quinolin-4-yloxy}-phenyl)-2-trifluoromethyl-benzenesulfonamide]
[7]
  IC50: < 0.5 µM
